In patent US11629155B2, “Small molecule antagonist compound TAC5 series having toll-like receptor 3/7/8/9 inhibitory function” (AJOU UNIVERSITY INDUSTRY-ACADEMIC COOPERATION FOUNDATION, priority 2018, dated 2023):

Tests used:
[1] = tested on: TLR7/8; assay: TLR7/8-mediated IL-6 expression in THP-1 cells; type: cell-based, human; settings: FIG. 4C
Experimental: RAW264.7 cells (ATCC, Manassas, Va., USA), which are mouse macrophages, were cultured in low-glucose DMEM (Thermo Fisher Scientific Inc.) supplemented with 10% FBS, 100 IU/ml penicillin and 100 μg/ml streptomycin in a culture system. Human monocyte THP1 cells were cultured in RPMI 1640 (Thermo Fisher Scientific Inc.) supplemented with 10% FBS, 100 IU/ml penicillin and 100 μg/ml streptomycin and then differentiation thereof into macrophages was induced using 10 nM phorbol 12-myristate 13-acetate (PMA) (Sigma-Aldrich Co. LLC.) for 24 hours. CL075, R848, CpG-ODN and Poly(I:C) were purchased from InvivoGen (San Diego, Calif., USA), and LPS was purchased from Sigma-Aldrich Co. (St. Louis, Mo., USA).
Cytotoxicity in RAW 264.7 cells was tested by treatment with these compounds at a concentration of 12.5 to 50 μM. […] The inhibitory effect of TAC5-a on TLR-mediated signaling was confirmed by measuring TNF-α secretion through ELISA in THP1-derived macrophages. […] In addition, in order to evaluate the antagonistic effect of TAC5-a on endosomal TLR activation, cells were cultured along with this compound in the presence of R848 (TLR7/8) or CL075 (TLR7/8), imiquimod (IMQ; TLR7), TL8 (TLR8), poly(I:C) (TLR3) or CpG ODN (TLR9) (FIGS. 4E, 4F and 4G).

[2] = tested on: RAW 264.7 cells; assay: MTT assay, cytotoxicity in RAW 264.7 cells; settings: FIG. 4B
Experimental: RAW264.7 cells (ATCC, Manassas, Va., USA), which are mouse macrophages, were cultured in low-glucose DMEM (Thermo Fisher Scientific Inc.) supplemented with 10% FBS, 100 IU/ml penicillin and 100 μg/ml streptomycin in a culture system.
Cytotoxicity in RAW 264.7 cells was tested by treatment with these compounds at a concentration of 12.5 to 50 μM.

[3] = tested on: C57BL/6 mice, IMQ-induced psoriasis; assay: IMQ-induced psoriasis mouse model; type: in vivo; settings: FIG. 5F
Experimental: The therapeutic efficacy of TAC5-a was evaluated in a psoriasis mouse model and a SLE mouse model. Psoriasis was induced in 6-7 week old C57BL/6 mice by topically applying 42 mg of IMQ cream (5%) to the shaved back skin of the mice for 6 consecutive days (FIG. 5A). TAC5-a was injected daily at doses of 50, 100 and 200 nmol/g and the effect thereof on severity was analyzed.
Histological analysis and immunochemical staining were performed on skin samples of mouse dorsal lesions. The sample was fixed with 4% paraformaldehyde solution, then embedded in paraffin and cut to 7 μm on a glass slide. The sections were stained with hematoxylin and eosin (H&E) and the thickness of the dermis and epidermis were measured. The thickness of skin was measured with a Leica DMi8 fluorescence microscope using a Leica LAS X Hardware Configurator (Leica Microsystems GmbH, Wetzlar, Germany). IMQ-mediated skin inflammation was evaluated by immunohistochemistry (IHC) using a primary antibody that recognizes CD68 (ab31630, 1:200 dilution) as a macrophage marker. […] The skin was stained with hematoxylin and eosin (H&E) in order to evaluate the thickness of the epidermis (yellow arrow) and dermis (green arrow) in IMQ-induced psoriasis mice and thereby to observe the histopathological changes of skin lesions in each group (FIG. 5G) Immunohistochemical analysis of skin lesions in each group was performed using a primary antibody that recognizes CD68.

SMILES | TLR7/8-mediated IL-6 expression [1] | cytotoxicity at 50 μM [2] | thickness of the epidermis and the dermis (H&E) [3]
NCCOCC(Oc1cccnc1N)c1ccccc1 (centres unmarked) [TAC5-e, 3-(2-(2-aminoethoxy)-1-phenylethoxy)pyridine-2-amine] | inhibited |  | 
c1ccc(COc2cccnc2Nc2ccccc2)cc1 [TAC5-c, 3-(benzyloxy)-N-phenylpyridin-2-amine] | inhibited | slight cytotoxicity | 
CCOCC(Oc1cccnc1N)c1ccccc1 (centres unmarked) [TAC5-d, 3-(2-ethoxy-1-phenylethoxy)pyridine-2-amine] | inhibited |  | 
CN(Cc1cnc2nc(N)nc(N)c2n1)c1ccc(C(=O)N[C@@H](CCC(=O)O)C(=O)O)cc1 [MTX, methotrexate, reference compound] |  |  | therapeutic effects similar to those of the treatment group were observed
